According to PMC3855329, “A Fluorescence-Based Thermal Shift Assay Identifies Inhibitors of Mitogen Activated Protein Kinase Kinase 4” (PLoS ONE, 2013):
Like-named read-outs stand apart in the source and are kept apart here.

Legend:
human MAP2K4-EE [1] = biological target: T1, human MAP2K4-EE (Homo sapiens, UniProt P45985, S257E/T261E); assay: Fluorescence-based thermal shift (FTS) assay; assay type: binding; settings: for ΔTm at 10 µM: 10 µM compound, mean ± SD
T1 construct: Human MAP2K4-EE (residues 37–399); His tag (pMCSG7 vector, TEV-cleavable) (N); made in house; host or cells: E. coli KRX cells with pGro7 (GroEL/GroES)
T1 sequence (P45985 37-399 S257E/T261E): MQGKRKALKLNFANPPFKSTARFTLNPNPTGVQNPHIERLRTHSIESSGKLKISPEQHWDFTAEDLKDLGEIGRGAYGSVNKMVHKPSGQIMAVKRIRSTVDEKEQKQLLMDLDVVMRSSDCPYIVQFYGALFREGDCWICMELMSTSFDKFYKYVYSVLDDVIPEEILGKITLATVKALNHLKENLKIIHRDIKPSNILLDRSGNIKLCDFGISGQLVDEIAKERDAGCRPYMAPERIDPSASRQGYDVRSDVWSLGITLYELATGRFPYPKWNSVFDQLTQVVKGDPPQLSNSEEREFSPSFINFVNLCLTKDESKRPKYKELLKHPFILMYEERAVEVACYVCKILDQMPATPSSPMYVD
Description: Small molecule screening by FTS assay was performed as described previously, [23] but with modifications, using an Echo550 (Labcyte) for compound transfer and a Mosquito (TTP Labtech) to dispense protein into 384 well PCR plates. Purified MAP2K4-EE was appropriately diluted in a buffer containing 100 mM Hepes, pH 7.5, 150 mM NaCl. […] The PCR plates were sealed with optical seal, shaken, and centrifuged after protein and compounds were added. […] Curve fitting, melting temperature calculation and report generation on the raw FTS data were performed using software developed by us. Initial screening with the 2000 compound Spectrum Collection was carried out in a pooled fashion. Specifically, 3 compounds were added at 10 µM concentration to each well and wells with positive Tm shift >2°C were then dissected to identify the responsible compound.

[2] = biological target: T2, MAP3K1 activated murine MAP2K4 (MAP2K4-AC) (Mus musculus, UniProt P47809); assay: In vitro MAP2K4 kinase assay, p38α MAPK (K53A) substrate, Western blot densitometry; assay type: biochemical
T2 construct: purchased Millipore 14-377
T2 sequence (P47809 1-397): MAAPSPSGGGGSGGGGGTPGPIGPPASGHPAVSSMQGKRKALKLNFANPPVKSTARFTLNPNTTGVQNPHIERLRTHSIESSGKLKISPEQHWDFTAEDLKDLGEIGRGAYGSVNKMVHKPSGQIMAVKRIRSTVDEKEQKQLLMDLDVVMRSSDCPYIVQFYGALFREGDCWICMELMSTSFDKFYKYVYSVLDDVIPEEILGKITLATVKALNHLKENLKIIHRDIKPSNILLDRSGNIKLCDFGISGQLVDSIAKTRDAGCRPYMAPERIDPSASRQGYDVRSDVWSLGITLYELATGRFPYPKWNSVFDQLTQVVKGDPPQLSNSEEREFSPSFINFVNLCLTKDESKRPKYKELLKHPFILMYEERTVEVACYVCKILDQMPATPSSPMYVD
Description: In addition to activated MAP2K4, the in vitro kinase assay used either kinase dead JNK1-K55M (Abcam # ab95248) or kinase dead p38α MAPK-K53A (generously provided by Dr. Martin Watterson, Northwestern) as the substrate, ATP (Cell Signaling) and kinase assay buffer (25 mM Tris-HCl (pH 7.5), 5 mM beta-glycerophosphate, 2 mM dithiothreitol (DTT), 0.1 mM Na3VO4, 10 mM MgCl2). […] Geraldol, 2′,4′-dihydroxychalcone and 3,2′-dihyrdoxy-4,4′,6′-trimethoxychalcone were purchased from Indofine Chemical Company. All other compounds were purchased from Sigma-Aldrich. To tubes containing 13 µl of 1.5X buffer on ice the assay reagents were added as indicated for a final reaction volume of 20 µL: 25 ng of MAP2K4-AC (stocks of 25 ng/uL were prepared and aliquoted from a 10 ug vial after the supplier concentration was verified using a Nanodrop 1000), inhibitors as denoted (from DMSO stock solutions), 1 µM final ATP, and 1 µg of JNK1 or p38 MAPK. […] All kinase assays were performed twice at separate times.
(§1) Twenty µl of reaction mixtures were separated by sodium dodecyl sulfate-polyacrylamide gel electrophoresis using precast 4–20% gradient gels (Biorad), per the manufacturers' instructions, and transferred onto 0.45 µm nitrocellulose membranes (Biorad). […] Bands were visualized with the aid of chemiluminescence reagents (GE Healthcare) after hybridization with a HRP conjugated rabbit secondary antibody (GE Healthcare). […] The bands were quantified using ImageJ software; normalized inhibitor-response data were plotted using Prism 6 to determine relative IC50 values.

[3] = biological target: T2, MAP3K1 activated murine MAP2K4 (MAP2K4-AC); assay: In vitro MAP2K4 kinase assay, JNK1 (K55M) substrate, Western blot densitometry; assay type: biochemical
Description: In addition to activated MAP2K4, the in vitro kinase assay used either kinase dead JNK1-K55M (Abcam # ab95248) or kinase dead p38α MAPK-K53A (generously provided by Dr. Martin Watterson, Northwestern) as the substrate, ATP (Cell Signaling) and kinase assay buffer (25 mM Tris-HCl (pH 7.5), 5 mM beta-glycerophosphate, 2 mM dithiothreitol (DTT), 0.1 mM Na3VO4, 10 mM MgCl2). […] All other compounds were purchased from Sigma-Aldrich. To tubes containing 13 µl of 1.5X buffer on ice the assay reagents were added as indicated for a final reaction volume of 20 µL: 25 ng of MAP2K4-AC (stocks of 25 ng/uL were prepared and aliquoted from a 10 ug vial after the supplier concentration was verified using a Nanodrop 1000), inhibitors as denoted (from DMSO stock solutions), 1 µM final ATP, and 1 µg of JNK1 or p38 MAPK. […] All kinase assays were performed twice at separate times.
as §1

human MAP2K4-EE [4] = biological target: T1, human MAP2K4-EE; assay: Fluorescence-based thermal shift (FTS) assay; assay type: binding; settings: 1 mM ligand
human PCa cells = system: human PCa cells; parameters: method as in PMID 18339885; settings: orthotopically implanted into mice; cited from earlier work
MMP-2 expression = system: MMP-2 expression; parameters: method as in PMID 19638505; settings: prospective administration to humans; cited from earlier work
[5] = kinase dead p38α MAPK-K53A substrate, 1 µM ATP, mean (95% confidence intervals), read-out: IC50-p38
[6] = kinase dead JNK1-K55M substrate, 1 µM ATP, mean (95% confidence intervals), read-out: IC50-JNK1

Structure (SMILES) | ΔTm at 10 µM (human MAP2K4-EE [1]; n = 3, 10 µM) [°C] | ΔTm at 10 µM (human MAP2K4-EE [1]; n = 3, read-out: ΔTm at 10 µM) [°C] | IC50 [2, 5] [µM] | also measured
Nc1ncnc2c1c(I)cn2[C@@H]1O[C@H](CO)[C@@H](O)[C@H]1O [5-iodotubercidin] | 4.29±0.07 | 4.3 | 0.2 | IC50 [3, 6]: 2.8 µM
Nc1ncnc2c1ncn2[C@@H]1O[C@H](COP(=O)(O)OP(=O)(O)NP(=O)(O)O)[C@@H](O)[C@H]1O [AMP-PNP] | – | – | – | shift in Tm (ΔTm) (human MAP2K4-EE [4]): highest ΔTm values
Nc1ncnc2c1ncn2[C@@H]1O[C@H](COP(=O)(O)OP(=O)(O)OP(=O)(O)O)[C@@H](O)[C@H]1O [ATP] | – | – | – | shift in Tm (ΔTm) (human MAP2K4-EE [4]): > 10 °C
O=C1c2ccccc2C(=O)c2c1ccc(O)c2O [Alizarin, 1,2-dihydroxyanthraquinone] | – | – | – | IC50 [2]: 0.9 µM
O=c1cc(-c2ccc(O)cc2)oc2cc(O)cc(O)c12 [Apigenin] | – | 2.8 ± 0.23 | 15.9 | IC50 [3, 6]: 20.1 µM
O=c1c(-c2ccc(O)cc2)coc2cc(O)ccc12 [Daidzein] | – | – | – | thermal stabilization of MAP2K4 (concentration dependent thermal shift) (human MAP2K4-EE [1]; 1, 10 and 25 µM): no such thermal stabilization effect; inhibition of MAP2K4 activity ([2]; concentrations of up to 200 µM, p38 MAPK (K53A) or JNK1 (K55M) substrates): does not inhibit
COc1cc(-c2oc3cc(O)ccc3c(=O)c2O)ccc1O [Geraldol, 3,4′,7-Trihydroxy-3′-methoxyflavone] | – | – | – | IC50 [2]: 0.8 µM
NCC(=O)O [L-glycine] | – | – | – | shift in Tm (ΔTm) (human MAP2K4-EE [4]): did not induce thermal stability
Cc1ccc(-c2nn(C(C)(C)C)c3ncnc(N)c23)cc1 [PP1] | 2.55±0.03 | 2.5 | – | IC50 [2]: 13.8 µM; IC50 [3]: 16.9 µM
CC(C)(C)n1nc(-c2ccc(Cl)cc2)c2c(N)ncnc21 [PP2] | 2.33±0.04 | 2.3 | – | IC50 [2]: 39.9 µM; IC50 [3]: 22.3 µM
O=C(CCc1ccc(O)cc1)c1c(O)cc(O)cc1O [Phloretin] | 2.69±0.33 | 2.7 | – | –
O=c1c(O)c(-c2ccc(O)c(O)c2)oc2cc(O)cc(O)c12 [Quercetin] | – | 2.75 ± 0.22 | 2 | IC50 [3, 6]: 1.7 µM
O=c1c(-c2ccc(O)cc2)coc2cc(O)cc(O)c12 [genistein, 4,5,7-trihydroxyisoflavone] | – | – | – | metastasis of human PCa cells (human PCa cells): inhibits the metastasis; MMP-2 expression in prostate tissue (MMP-2 expression): selectively decreases MMP-2 expression

Further lines, with some results ahead:

ΔTm at 10 µM (human MAP2K4-EE [1]; n = 3, 10 µM) [°C] | ΔTm at 10 µM (human MAP2K4-EE [1]; n = 3, read-out: ΔTm at 10 µM) [°C] | IC50 [2, 5] [µM] | Structure (SMILES) | also measured
3.67±0.50 | 3.7 | 16.9 | O=C(/C=C/c1ccccc1)c1ccc(O)cc1O [2′,4′-dihydroxychalcone] | –
2.55±0.20 | 2.5 | 0.8 | O=c1c(O)c(-c2ccccc2)oc2cc(O)ccc12 [3,7-dihydroxyflavone] | –
2.26±0.15 | 2.3 | 28.5 | COc1cc(/C=C(\C#N)C(N)=O)cc(CSc2nc3ccccc3s2)c1O [AG825] | IC50 [3, 6]: 25 µM
1.78±0.42 | 1.8 | 10.1 | O=c1cc(-c2ccccc2)oc2cc(O)cc(O)c12 [Chrysin, 5,7-dihydroxyflavone] | –
6.4±0.06 | > 4 | 0.4 | O=C1c2ccccc2-c2n[nH]c3cccc1c23 [SP600125] | IC50 [3, 6]: 0.7 µM
